# Legend:
# in vivo [1] = test: in vivo; parameters: species or system Crl:CD1(ICR) mice; details: mouse, sc
# in vivo [2] = test: in vivo; parameters: species or system sprague dawley rats; details: rat, sc; for AUC(0-t) / CL/F / Cmax / Tmax / half-life: female, Sprague Dawley
# gubra DIO rats = details: gubra choice DIO model; cited from earlier work
# [3] = both, Crl:CD1(ICR) (CD-1), 625 nmol/kg
Compound,AUC(0-inf) (in vivo [1]; [3]),CL/F (in vivo [1]; [3]),Cmax (in vivo [1]; [3]),Tmax (in vivo [1]; [3]),half-life (in vivo [1]; [3]),T1/2 (elimination half-life) (in vivo [1]),AUC(0-t) (in vivo [2]; 31 nmol/kg),CL/F (in vivo [2]; 31 nmol/kg),Cmax (in vivo [2]; 31 nmol/kg),Tmax (in vivo [2]; 31 nmol/kg),half-life (in vivo [2]; 31 nmol/kg),AUC(0-t) (in vivo [2]; 104 nmol/kg),CL/F (in vivo [2]; 104 nmol/kg),Cmax (in vivo [2]; 104 nmol/kg),Tmax (in vivo [2]; 104 nmol/kg),half-life (in vivo [2]; 104 nmol/kg),T1/2 (in vivo [2]),cumulative chow intake compared to controls (gubra DIO rats),decrease of cumulative gubra diet intake compared to controls (gubra DIO rats)
CC[C@H](C)[C@H](NC(=O)[C@H](CC(C)C)NC(=O)[C@H](Cc1c[nH]c2ccccc12)NC(=O)[C@H](CCC(N)=O)NC(=O)[C@@H](NC(=O)[C@H](Cc1ccccc1)NC(=O)[C@H](C)NC(=O)[C@H](CCCCNC(=O)COCCOCCNC(=O)COCCOCCNC(=O)CC[C@H](NC(=O)CCCCCCCCCCCCCCCCCCC(=O)O)C(=O)O)NC(=O)[C@H](CCC(N)=O)NC(=O)[C@H](C)NC(=O)[C@@H](NC(=O)[C@H](CCCCN)NC(=O)[C@H](CC(=O)O)NC(=O)[C@H](CC(C)C)NC(=O)C(C)(C)NC(=O)[C@@H](NC(=O)[C@H](CO)NC(=O)[C@H](Cc1ccc(O)cc1)NC(=O)[C@H](CC(=O)O)NC(=O)[C@H](CO)NC(=O)[C@@H](NC(=O)[C@H](Cc1ccccc1)NC(=O)[C@@H](NC(=O)CNC(=O)[C@H](CCC(=O)O)NC(=O)C(C)(C)NC(=O)[C@@H](N)Cc1ccc(O)cc1)[C@@H](C)O)[C@@H](C)O)[C@@H](C)CC)[C@@H](C)CC)C(C)C)C(=O)N[C@@H](C)C(=O)NCC(=O)NCC(=O)N1CCC[C@H]1C(=O)N[C@@H](CO)C(=O)N[C@@H](CO)C(=O)NCC(=O)N[C@@H](C)C(=O)N1CCC[C@H]1C(=O)N1CCC[C@H]1C(=O)N1CCC[C@H]1C(=O)N[C@@H](CO)C(N)=O [tirzepatide],71.7 µM·h,0.145 mL/min/kg,2540 nM,12 h,714 min,approximately 12 hr,3.74 µM·h,0.139 mL/min/kg,127 nM,12 h,558 min,10 µM·h,0.172 mL/min/kg,310 nM,12 h,618 min,10.3 h,,
"liraglutide (HAEGTFTSDVSSYLEGQAAKEFIAWLVRGRG; chains of the INN, looked up)",,,,,,,,,,,,,,,,,,approximately doubled,approximately 60%

# From article PMC10362946 (Diabetes, obesity & metabolism, 2022)
